For 1 compound, MIC and Ratio results are on record in ChEMBL document CHEMBL4376820, “Homodimeric Tobramycin Adjuvant Repurposes Novobiocin as an Effective Antibacterial Agent against Gram-Negative Bacteria” (J Med Chem, 2019).

Molecules are shown by their SMILES. A value given as a limit tells only on which side of the number the result lay.

Holding throughout (format): functional
Experiment [1] deals with Pseudomonas aeruginosa. In words: Potentiation of novobiocin-induced antibacterial activity against carbapenem and colistin-resistant Pseudomonas aeruginosa 91433 clinical isolate assessed as novobiocin MIC at <= 7.1 uM incubated for 18 hrs by CLSI protocol based assay (reference value: 16 ug/ml). To be noted: Pseudomonas aeruginosa, 91433, 18 h.
Experiment [2] deals with Pseudomonas aeruginosa. Briefly: Antibacterial activity against Pseudomonas aeruginosa 260-97103 clinical isolate incubated for 18 hrs by CLSI protocol based assay. As to conditions: 260-97103, 18 h.
Experiment [3] has as its system Klebsiella pneumoniae. Briefly: Antibacterial activity against colistin-resistant Klebsiella pneumoniae 113254 clinical isolate incubated for 18 hrs by CLSI protocol based assay. As to conditions: Klebsiella pneumoniae, 113254, 18 h.
Experiment [4] has as its system Pseudomonas aeruginosa. In words: Potentiation of novobiocin-induced antibacterial activity against carbapenem-resistant Pseudomonas aeruginosa 264-104354 clinical isolate assessed as fold reduction in novobiocin MIC incubated for 18 hrs by CLSI protocol based assay relative to novobiocin MIC.

As to `NC[C@H]1O[C@H](O[C@H]2[C@H](OCCCCc3cn(CCCCO[C@@H]4[C@@H](O[C@H]5O[C@H](CO)[C@@H](O)[C@H](N)[C@H]5O)[C@H](N)C[C@H](N)[C@H]4O[C@H]4O[C@H](CN)[C@@H](O)C[C@H]4N)nn3)[C@@H](O[C@H]3O[C@H](CO)[C@@H](O)[C@H](N)[C@H]3O)[C@H](N)C[C@@H]2N)[C@H](N)C[C@@H]1O.O=C(O)C(F)(F)F.O=C(O)C(F)(F)F.O=C(O)C(F)(F)F.O=C(O)C(F)(F)F.O=C(O)C(F)(F)F.O=C(O)C(F)(F)F.O=C(O)C(F)(F)F.O=C(O)C(F)(F)F.O=C(O)C(F)(F)F.O=C(O)C(F)(F)F`, the MIC (in general, the lowest concentration found to suppress growth) is 1 µg/mL in experiment [1], more than 128 µg/mL in experiment [2] and more than 128 µg/mL in experiment [3]. The Ratio in experiment [4] is recorded as 64.
